Reference: patent US8168199B2, “Dipeptidyl peptidase IV inhibitors for the treatment of schizophrenia and depression” (priority 2000, dated 2012)

Legend:
dipeptidyl peptidase IV = biological target: T1, dipeptidyl peptidase IV (Homo sapiens, UniProt P27487); settings: human serum incubated with neuropeptide Y or peptide YY; cited from earlier work
T1 construct: from tissue; host or cells: human serum

[1] = i.c.v. injection; cited from earlier work
[2] = system: Male WistarF/Han (WF) rats; assay: Social interaction (SI) test with Y1R antagonist BIBP3226, P32/98 and NPY (Example 4); assay type: in vivo, rat
Method: (§1) Animals. Male WistarF/Han (WF) rats (Central Animal Laboratory, Hannover Medical School, Hannover, Germany, weighing 330±31 g±SD, were housed in a sound-proof, temperature controlled (24.0±0.5° C.) room under specific pathogen free conditions with a 12/12 h dark/light cycle (lights on at 07.00 with illumination level of 80 Lux). Food (Altromin lab chow pellets) and tap water were available ad libitum. Under ketamine/xylasine (100/5 mg/kg, i.p.) anesthesia, the rats were fixed in a Kopf stereotaxic frame and implanted with cannulae (Plastic One, Inc., Roanoke, Va., USA) above the lateral ventricle. All research and animal care procedures were approved by the Lower Saxony district government (Hannover, Germany) and followed principles described in the European Community's Council Directive of 24 Nov. 1986 (86/609/EEC).
(§2) Surgery and i.c.v. application. […]
(§3) Animals were randomly divided into eight experimental groups (n=6-8/group), which completed one SI test of anxiety: (1) aCSF+aCSF+aCSF; (2) BIBP+aCSF+aCSF; (3) aCSF+P32/98+aCSF; (4) BIBP+P32/98+aCSF; (5) aCSF+aCSF+NPY; (6) BIBP+aCSF+NPY; (7) aCSF+[…]+NPY; (8) BIBP+P32/98+NPY. […] The time spent in active social interaction (SI-time), 1 h, and 12 h food-intake were measured. […]
Social interaction (SI) test. […] Behavior was monitored using a video camera placed above the field inside the testing/isolation box. The SI behavior of both rats was recorded on-line from a monitor placed outside on top of the box. The following parameters were scored by an observer (HPN) unaware of the substrain of rats: duration of time spent in sniffing, following, crawling under and over other rats, but not passive body contact (resting, sleeping). […]
(§4) Statistical analysis. Data obtained from the measures SI time and 1 h food intake were analyzed by one-way (factor: “treatment”) ANOVA. […]

rats = settings: administered into the dorsal periaqueductal gray matter; cited from earlier work
[3] = system: Male WistarF/Han (WF) rats; assay: 1 h food-intake with Y1R antagonist BIBP3226, P32/98 and NPY (Example 4); assay type: in vivo, rat; settings: i.c.v. BIBP3226 100 nmol
Method: as §1, §2, §3, §4

[4] = system: Male WistarF/Han (WF) rats; assay: 1 h and 12 h food-intake after i.c.v. P32/98 and NPY (Example 3); assay type: in vivo, rat; settings: i.c.v. P32/98 5 pmol-500 nmol, NPY 50 pmol-1.6 nmol; dark cycle
Method: as §1, with “330-370 g,” for “330±31 g±SD,”
Surgery and i.c.v. application. For surgery, rats were anesthetized and prepared with i.c.v. cannulae (coordinates: A: −0.7 mm caudal, L: 1.4 mm lateral to bregma; and V3.2 mm ventral to the skull surface; tooth bar +3.0 above ear bars) using standard stereotaxic procedures as described in detail elsewhere (von Hörsten et al., 1998a, b, c). After a 7-day recovery period, successful ventricle cannulation was confirmed by an angiotensin drinking response (von Hörsten et al., 1998a). Rats showing a positive drinking response (n=59) were then habituated to experimental handling by daily sham injections for seven days.
Animals were randomly divided into two sets of four experimental groups (n=5-6/group), which completed different consecutive SI test of anxiety. […] The time spent in active social interaction (SI-time), 1 h and 12 h food-intake were measured. […]
Statistical analysis. Data from repeated observations (food intake) were analyzed by two-way analyses of variance for repeated measures (ANOVA) (factors: “substrain” and “food intake” as repeated measure). Data obtained from simple measures such as DPIV activity or SI time were analyzed by one-way (factor: “substrain”) ANOVA. […]

T1 sequence (P27487 39-766 limits assumed): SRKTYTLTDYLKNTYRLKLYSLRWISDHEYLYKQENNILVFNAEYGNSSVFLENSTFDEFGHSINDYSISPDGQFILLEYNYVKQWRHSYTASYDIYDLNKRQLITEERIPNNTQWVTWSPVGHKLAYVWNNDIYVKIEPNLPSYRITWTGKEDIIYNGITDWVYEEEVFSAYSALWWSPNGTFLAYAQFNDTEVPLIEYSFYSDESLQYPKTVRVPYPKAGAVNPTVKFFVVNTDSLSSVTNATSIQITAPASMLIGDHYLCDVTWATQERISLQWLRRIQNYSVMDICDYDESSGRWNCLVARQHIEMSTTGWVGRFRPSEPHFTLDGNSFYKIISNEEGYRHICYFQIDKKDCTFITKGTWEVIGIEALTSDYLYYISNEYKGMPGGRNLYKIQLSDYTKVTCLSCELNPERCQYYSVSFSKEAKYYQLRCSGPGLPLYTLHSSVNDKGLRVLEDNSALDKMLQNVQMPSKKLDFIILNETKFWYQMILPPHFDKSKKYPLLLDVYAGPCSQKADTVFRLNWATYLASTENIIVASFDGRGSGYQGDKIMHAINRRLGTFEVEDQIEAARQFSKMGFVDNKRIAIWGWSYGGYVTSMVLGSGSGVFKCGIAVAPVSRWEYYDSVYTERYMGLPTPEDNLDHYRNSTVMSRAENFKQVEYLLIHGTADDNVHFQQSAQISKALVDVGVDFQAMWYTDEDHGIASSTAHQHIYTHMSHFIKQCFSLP

Molecule: NCCCC[C@H](N)C(=O)N1CCCC1 [Lys-pyrrolidine]
- formation of Tyr-Pro in serum (dipeptidyl peptidase IV): blocked

Molecule: NC(N)=NCCC[C@@H](NC(=O)C(c1ccccc1)c1ccccc1)C(=O)NCc1ccc(O)cc1 [BIBP3226]
- anxiety-related behavior in the elevated plus-maze test [1]: anxiogenic-like effects
- locomotor effect in the elevated plus-maze test [1]: without any locomotor deficit
- effect of Y1 receptor antagonist pre-treatment on P32/98-induced potentiation of NPY anxiolysis (SI behavior) ([2]; i.c.v. BIBP3226 100 nmol, P32/98 50 nmol, NPY 0.8 nmol): can block
- time spent in active social interaction (rats): decreased
- effect of Y1 R blockade on 1 h feeding effects [3]: only partly affected

Molecule: Rat neuropeptide Y1-36 [NPY, reference compound]
- SI-time, NPY alone ([2]; i.c.v. 0.8 nmol): anxiolytic-like effect
- amount of food eaten within 1 h [4]: “u-shaped” dose-dependent feeding effect

Molecule: Ile-Pro-Ile [diprotin A]
- formation of Tyr-Pro in serum (dipeptidyl peptidase IV): blocked
